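Cultured in 96-well plates, cells were exposed to test compound for 48 hours across five concentrations. Here, GI50 denotes the concentration required for 50% inhibition of growth.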 Calls of active or inactive are those of the source. Cut-off read from the data, not from the text of the source: active = GI50 up to about 1.1 µM and inactive = higher.
Columns and labels:
Assay in all cases: growth of human tumour cells (NCI), 48 h
SF-539 = tested on: SF-539
SN12C = tested on: SN12C
SF-295 = tested on: SF-295
SK-MEL-5 = tested on: SK-MEL-5
NCI-H23 = tested on: NCI-H23
SNB-19 = tested on: SNB-19
UO-31 = tested on: UO-31
CAKI-1 = tested on: CAKI-1
NCI-H226 = tested on: NCI-H226
T47D = tested on: T47D
OVCAR-5 = tested on: OVCAR-5
KM12 = tested on: KM12
RXF 393 = tested on: RXF 393
EKVX = tested on: EKVX
HCC 2998 = tested on: HCC 2998
NCI-H522 = tested on: NCI-H522
CCRF-CEM = tested on: CCRF-CEM
IGROV-1 = tested on: IGROV-1
SW-620 = tested on: SW-620
SR = tested on: SR

Measured: GI50

N#CCCN(CCC#N)c1ccc(C(=N/c2ccc(Cl)cc2)/N=N/c2ccccc2)cc1
inactive: SF-539 > 100 µM | SN12C > 100 µM | SF-295 10.9 µM | SK-MEL-5 10.3 µM | NCI-H23 54.2 µM | SNB-19 > 100 µM | UO-31 23.8 µM | CAKI-1 > 100 µM | NCI-H226 > 100 µM | T47D 12.8 µM | OVCAR-5 > 100 µM | KM12 58.5 µM | RXF 393 16.9 µM | EKVX 99.5 µM | HCC 2998 26.6 µM | NCI-H522 36.6 µM | CCRF-CEM > 100 µM | IGROV-1 55.7 µM | SW-620 > 100 µM

Cc1ccc(S(=O)(=O)NN=C2C(C)(C)CC2(C)C)cc1
inactive: SF-539 > 100 µM | SN12C > 100 µM | SF-295 > 100 µM | SK-MEL-5 > 100 µM | NCI-H23 > 100 µM | SNB-19 > 100 µM | UO-31 > 100 µM | CAKI-1 > 100 µM | NCI-H226 > 100 µM | T47D > 100 µM | OVCAR-5 > 100 µM | KM12 > 100 µM | RXF 393 > 100 µM | EKVX > 100 µM | HCC 2998 > 100 µM | NCI-H522 > 100 µM | CCRF-CEM 68.7 µM | IGROV-1 > 100 µM | SW-620 > 100 µM

CC(C)(C)c1ccc(O)c(CN(Cc2c(O)ccc3ccccc23)C2CCCCC2)c1
inactive: SR 16 µM | SF-539 16.4 µM | SN12C 17.3 µM | SF-295 18.3 µM | SK-MEL-5 16.5 µM | NCI-H23 16.4 µM | SNB-19 18.5 µM | UO-31 14.7 µM | CAKI-1 15.2 µM | T47D 17.9 µM | OVCAR-5 16.9 µM | KM12 17.6 µM | RXF 393 17.5 µM | EKVX 15.8 µM | NCI-H522 14.8 µM | CCRF-CEM 13.9 µM | IGROV-1 15.7 µM | SW-620 24.4 µM

CN(CCN(C)C(=S)NN)C(=S)NN
inactive: SR > 100 µM | SN12C > 100 µM | SF-295 > 100 µM | SK-MEL-5 > 100 µM | NCI-H23 > 100 µM | SNB-19 > 100 µM | UO-31 > 100 µM | CAKI-1 > 100 µM | T47D > 100 µM | OVCAR-5 > 100 µM | KM12 > 100 µM | EKVX > 100 µM | HCC 2998 > 100 µM | NCI-H522 > 100 µM | CCRF-CEM > 100 µM | IGROV-1 > 100 µM | SW-620 > 100 µM

CCOC(=O)/C1=C(\C)N(c2ccc(C)cc2)C(=O)c2ccccc2C(=O)c2c(O)ccc(O)c21
inactive: SF-539 26.5 µM | SN12C 25.9 µM | SF-295 16.9 µM | SK-MEL-5 16.3 µM | NCI-H23 24.7 µM | SNB-19 47.5 µM | UO-31 27.7 µM | CAKI-1 20 µM | NCI-H226 42.4 µM | T47D 13.4 µM | OVCAR-5 30.2 µM | KM12 23 µM | RXF 393 23.2 µM | EKVX 24.8 µM | HCC 2998 16.5 µM | NCI-H522 18.7 µM | CCRF-CEM 20.6 µM | IGROV-1 18.9 µM | SW-620 27.6 µM

CN1Cc2ccccc2S(=O)(=O)n2cccc2C1=O
inactive: SR 8.41 µM | SF-539 > 100 µM | SN12C > 100 µM | SF-295 > 100 µM | SK-MEL-5 > 100 µM | UO-31 > 100 µM | CAKI-1 > 100 µM | T47D 32.8 µM | OVCAR-5 > 100 µM | KM12 > 100 µM | RXF 393 > 100 µM | EKVX > 100 µM | NCI-H522 > 100 µM | CCRF-CEM > 100 µM | IGROV-1 > 100 µM | SW-620 > 100 µM

COc1ccc(C2c3cc4c(cc3OC(N3CCOCC3)C2C)OCO4)c(OC)c1OC (stereo not given)
inactive: SR 9.06 µM | SF-539 12.6 µM | SN12C 26.3 µM | SF-295 5.97 µM | SK-MEL-5 10.1 µM | NCI-H23 33.7 µM | SNB-19 10.7 µM | UO-31 6.81 µM | CAKI-1 2.51 µM | T47D 20.6 µM | OVCAR-5 17.1 µM | KM12 5.55 µM | EKVX 24.2 µM | HCC 2998 10.8 µM | NCI-H522 6.89 µM | CCRF-CEM 13 µM | IGROV-1 15.1 µM | SW-620 11.1 µM

CCOc1ccc(C(c2c(O)c3ccccc3oc2=O)c2c(O)c3ccccc3oc2=O)cc1
inactive: SR 26 µM | SF-539 48 µM | SN12C 43.8 µM | SF-295 > 100 µM | SK-MEL-5 44.5 µM | NCI-H23 44.4 µM | SNB-19 91 µM | UO-31 20.5 µM | CAKI-1 93.8 µM | NCI-H226 95.9 µM | T47D 41.4 µM | OVCAR-5 > 100 µM | KM12 56.9 µM | EKVX 80.4 µM | NCI-H522 30.7 µM | CCRF-CEM 27 µM | IGROV-1 > 100 µM | SW-620 79.4 µM

O=S(=O)(O)c1ccc2c(/N=N/c3ccccc3Cl)c(O)ccc2c1
inactive: SR > 100 µM | SN12C > 100 µM | SF-295 > 100 µM | SK-MEL-5 > 100 µM | NCI-H23 > 100 µM | SNB-19 > 100 µM | UO-31 > 100 µM | CAKI-1 > 100 µM | T47D > 100 µM | OVCAR-5 > 100 µM | KM12 > 100 µM | RXF 393 > 100 µM | EKVX > 100 µM | NCI-H522 > 100 µM | CCRF-CEM > 100 µM | IGROV-1 > 100 µM | SW-620 > 100 µM

C=C(CBr)CCCOCc1ccccc1
inactive: SR 31.3 µM | SF-539 19.5 µM | SN12C 24.5 µM | SF-295 36.1 µM | SK-MEL-5 20.5 µM | NCI-H23 13.9 µM | SNB-19 15.6 µM | UO-31 13.7 µM | CAKI-1 5.6 µM | NCI-H226 15.5 µM | T47D 37.8 µM | OVCAR-5 18.7 µM | KM12 18.9 µM | EKVX 22.9 µM | NCI-H522 22.3 µM | CCRF-CEM 26.1 µM | IGROV-1 21.4 µM | SW-620 32.7 µM

COc1cc(OC)c(OC)cc1/C=C/c1cc[n+](C)c2ccccc12
inactive: SR 17.8 µM | SF-295 15.3 µM | SK-MEL-5 11 µM | NCI-H23 12.1 µM | SNB-19 8.45 µM | UO-31 > 100 µM | CAKI-1 > 100 µM | T47D 33.4 µM | OVCAR-5 > 100 µM | KM12 19.8 µM | RXF 393 53.1 µM | EKVX 50.2 µM | HCC 2998 52.6 µM | CCRF-CEM 14.8 µM | IGROV-1 40 µM | SW-620 36.2 µM

Reference: ChEMBL document CHEMBL1201862, “PubChem BioAssay data set” (2004)
